Consider one compound from patent publication US20080230094A1, “METHOD TO INHIBIT GROWTH OF MICROORGANISMS IN AQUEOUS SYSTEMS AND ON SUBSTRATES USING PERSULFATE AND A BROMIDE” (Buckman Laboratories International, Inc., priority 2007, published 2008).

Each structure is given as a SMILES string.

The subject of this assay is Pseudomonas aeruginosa. The assay can be described thus: Biocidal efficacy in pulp slurry inoculated with Pseudomonas aeruginosa (plate count, log reduction). Format: cell-based. The settings on record: 1000 ppm as pure compound in pulp slurry; 24 hr incubation. As for the experimental part:
A concentrated solution of active biocidal composition was prepared by mixing 44% (w/v) of aqueous ammonium persulfate with 40% (w/v) aqueous sodium bromide in equal volume. The final mixture contains 22% ammonium persulfate and 20% NaBr at pH 2.2. […] Four hours after mixing, the concentrated solution was diluted with water to contain 5% ammonium persulfate. This diluted solution (5%) was then added to 50 ml pulp slurry to give a biocidal concentration of 10 ppm (as ammonium persulfate) in pulp slurry. The pulp slurry was then inoculated with 3×10^6 cells/ml of Pseudomonas aeruginosa, incubated at room temperature for 24 hr, plated in nutrient agar. The colony forming units per milliliter (cfu/ml) was counted and compared with each individual component acting alone.
The pulp slurry contains white bleached dry pulp at 5 g/L; cationic starch at 10 bl/ton dry pulp; CaCO3 at 300 bl/ton dry pulp; ASA size at 3-4 lb/ton dry pulp; retention aids at 0.5-1.0 bl/ton dry pulp; defoamer at 250 g/ton dry pulp. The pulp slurry has a consistency of about 0.5 to 0.7%. The final pH of the pulp substrate after autoclave is about 8.0.

Turning to `[Br-].[Na+]` [NaBr, sodium bromide], the CFU/ml is on record as 4.2 × 10^6 CFU/ml and the “Log Reduction” value is reported as 0.00.
